Laboratory results published in ChEMBL document CHEMBL4732255, “Evaluation of the antiproliferative activity of 106 marine microbial metabolites against human lung cancer cells and potential antiproliferative mechanism of purpuride G” (Bioorg Med Chem Lett, 2021).
Activity calls are given as the source filed them. The calls are words filed in the database; no cut-off is given here.

How the values were obtained:
BEAS-2B = experiment: Cytotoxicity against human BEAS-2B cells assessed as reduction in cell viability incubated for 72 hrs by sulforhodamine B assay; type: cell-based
PC-9 [1] = experiment: Cell cycle arrest in human PC-9 cells assessed as accumulation at G0/G1 phase at 5 uM measured after 48 hrs by propidium iodide staining based flow cytometry (reference value: 30.67 to 31.96%); type: functional
PC-9 [2] = experiment: Cell cycle arrest in human PC-9 cells assessed as accumulation at S phase at 5 uM measured after 48 hrs by propidium iodide staining based flow cytometry (reference value: 52.95 to 53.28%); type: functional
PC-9 [3] = experiment: Cell cycle arrest in human PC-9 cells assessed as accumulation at G2/M phase at 5 uM measured after 48 hrs by propidium iodide staining based flow cytometry (reference value: 15.09 to 16.04%); type: functional
NCI-H157 [4] = experiment: Cell cycle arrest in human NCI-H157 cells assessed as accumulation at G0/G1 phase at 5 uM measured after 48 hrs by propidium iodide staining based flow cytometry (reference value: 56.53 to 56.73%); type: functional
NCI-H157 [5] = experiment: Cell cycle arrest in human NCI-H157 cells assessed as accumulation at S phase at 5 uM measured after 48 hrs by propidium iodide staining based flow cytometry (reference value: 26.33 to 26.84%); type: functional
NCI-H157 [6] = experiment: Cell cycle arrest in human NCI-H157 cells assessed as accumulation at G2/M phase at 5 uM measured after 48 hrs by propidium iodide staining based flow cytometry (reference value: 16.62 to 16.94%); type: functional
PC-9 [7] = experiment: Induction of apoptosis in human PC-9 cells assessed as early apoptotic cells at 5 uM measured after 48 hrs by Annexin V-FITC/propidium iodide staining based flow cytometry (reference value: 2.55 to 2.8%); type: functional
PC-9 [8] = experiment: Induction of apoptosis in human PC-9 cells assessed as late apoptotic cells at 5 uM measured after 48 hrs by Annexin V-FITC/propidium iodide staining based flow cytometry (reference value: 5.5 to 6.9%); type: functional
NCI-H157 [9] = experiment: Induction of apoptosis in human NCI-H157 cells assessed as early apoptotic cells at 5 uM measured after 48 hrs by Annexin V-FITC/propidium iodide staining based flow cytometry (reference value: 1 to 1.1%); type: functional
NCI-H157 [10] = experiment: Induction of apoptosis in human NCI-H157 cells assessed as late apoptotic cells at 5 uM measured after 48 hrs by Annexin V-FITC/propidium iodide staining based flow cytometry (reference value: 1.95 to 2.1%); type: functional
NCI-H157 [11] = experiment: Antiproliferative activity against human NCI-H157 cells assessed as reduction in cell viability measured after 72 hrs by sulforhodamine B assay; type: functional, cell-based; conditions: NCI-H157, 72 h
A549 [12] = experiment: Antiproliferative activity against human A549 cells assessed as reduction in cell viability measured after 72 hrs by sulforhodamine B assay; type: functional, cell-based; conditions: A549, 72 h
NCI-H1703 = experiment: Antiproliferative activity against human NCI-H1703 cells assessed as reduction in cell viability incubated for 72 hrs by sulforhodamine B assay; type: functional, cell-based; conditions: NCI-H1703, 72 h
NCI-H1299 = experiment: Antiproliferative activity against human NCI-H1299 cells assessed as reduction in cell viability incubated for 72 hrs by sulforhodamine B assay; type: functional, cell-based; conditions: NCI-H1299, 72 h
NCI-H460 = experiment: Antiproliferative activity against human NCI-H460 cells assessed as reduction in cell viability incubated for 72 hrs by sulforhodamine B assay; type: functional, cell-based; conditions: NCI-H460, 72 h
PC-9 [13] = experiment: Antiproliferative activity against human PC-9 cells assessed as reduction in cell viability incubated for 72 hrs by sulforhodamine B assay; type: functional, cell-based; conditions: PC-9, 72 h
U-87 MG = experiment: Antiproliferative activity against human U-87MG cells assessed as reduction in cell viability incubated for 72 hrs by sulforhodamine B assay; type: functional, cell-based, U-87MG ATCC
U-251 = experiment: Antiproliferative activity against human U-251 cells assessed as reduction in cell viability incubated for 72 hrs by sulforhodamine B assay; type: functional, cell-based; conditions: U-251, 72 h
PC-9 [14] = experiment: Induction of apoptosis in human PC-9 cells assessed as viable cells at 5 uM measured after 48 hrs by Annexin V-FITC/propidium iodide staining based flow cytometry (reference value: 90.9%); type: functional; conditions: read-out: Activity
PC-9 [15] = experiment: Induction of apoptosis in human PC-9 cells assessed as necrotic cells at 5 uM measured after 48 hrs by Annexin V-FITC/propidium iodide staining based flow cytometry (reference value: 0.8%); type: functional
NCI-H157 [16] = experiment: Induction of apoptosis in human NCI-H157 cells assessed as viable cells at 5 uM measured after 48 hrs by Annexin V-FITC/propidium iodide staining based flow cytometry (reference value: 94.3%); type: functional; conditions: read-out: Activity
NCI-H157 [17] = experiment: Induction of apoptosis in human NCI-H157 cells assessed as necrotic cells at 5 uM measured after 48 hrs by Annexin V-FITC/propidium iodide staining based flow cytometry (reference value: 2.5%); type: functional
PC-9 [18] = experiment: Induction of apoptosis in human PC-9 cells assessed as downregulation of Bcl-2 protein expression at 2 to 5 uM incubated for 24 hrs by western blot analysis; type: functional, cell-based; conditions: dose 2-5 µM
PC-9 [19] = experiment: Induction of apoptosis in human PC-9 cells assessed as upregulation of Bax protein expression at 2 to 5 uM incubated for 24 hrs by western blot analysis; type: functional, cell-based; conditions: dose 2-5 µM
PC-9 [20] = experiment: Induction of apoptosis in human PC-9 cells assessed as induction of PARP cleavage at 2 to 5 uM incubated for 24 hrs by western blot analysis; type: functional, cell-based; conditions: dose 2-5 µM
NCI-H157 [21] = experiment: Induction of apoptosis in human NCI-H157 cells assessed as downregulation of Bcl-2 protein expression at 2 to 5 uM incubated for 24 hrs by western blot analysis; type: functional, cell-based; conditions: dose 2-5 µM
NCI-H157 [22] = experiment: Induction of apoptosis in human NCI-H157 cells assessed as upregulation of Bax protein expression at 2 to 5 uM incubated for 24 hrs by western blot analysis; type: functional, cell-based; conditions: dose 2-5 µM
NCI-H157 [23] = experiment: Induction of apoptosis in human NCI-H157 cells assessed as induction of PARP cleavage at 2 to 5 uM incubated for 24 hrs by western blot analysis; type: functional, cell-based; conditions: dose 2-5 µM
PC-9 [24] = experiment: Inhibition of glycolysis in human PC-9 cells assessed as reduction in extracellular glucose consumption at 5 uM incubated for 24 hrs; type: functional, cell-based
PC-9 [25] = experiment: Inhibition of glycolysis in human PC-9 cells assessed as reduction in lactate release at 5 uM incubated for 24 hrs; type: functional, cell-based
NCI-H157 [26] = experiment: Inhibition of glycolysis in human NCI-H157 cells assessed as reduction in extracellular glucose consumption at 5 uM incubated for 24 hrs; type: functional, cell-based
NCI-H157 [27] = experiment: Inhibition of glycolysis in human NCI-H157 cells assessed as reduction in lactate release at 5 uM incubated for 24 hrs; type: functional, cell-based
PC-9 [28] = experiment: Inhibition of glycolysis in human PC-9 cells assessed as downregulation of HK2 protein expression at 2 to 5 uM incubated for 24 hrs by western blot analysis; type: functional, cell-based; conditions: dose 2-5 µM
PC-9 [29] = experiment: Inhibition of glycolysis in human PC-9 cells assessed as downregulation of PKM2 protein expression at 2 to 5 uM incubated for 24 hrs by western blot analysis; type: functional, cell-based; conditions: dose 2-5 µM
NCI-H157 [30] = experiment: Inhibition of glycolysis in human NCI-H157 cells assessed as downregulation of HK2 protein expression at 2 to 5 uM incubated for 24 hrs by western blot analysis; type: functional, cell-based; conditions: dose 2-5 µM
NCI-H157 [31] = experiment: Inhibition of glycolysis in human NCI-H157 cells assessed as downregulation of PKM2 protein expression at 2 to 5 uM incubated for 24 hrs by western blot analysis; type: functional, cell-based; conditions: dose 2-5 µM
A549 [32] = experiment: Antiproliferative activity against human A549 cells assessed as cell viability at 50 uM measured after 72 hrs by sulforhodamine B assay; type: functional; conditions: read-out: Activity
NCI-H157 [33] = experiment: Antiproliferative activity against human NCI-H157 cells assessed as cell viability at 50 uM measured after 72 hrs by sulforhodamine B assay; type: functional; conditions: read-out: Activity

Work on `CC1(C)CC[C@H](O)[C@@]2(C)[C@H]1CC=C1C(=O)OC[C@@]12O` yielded an IC50 (BEAS-2B) of 6.3 µM, an Activity (PC-9 [1]) of 55.77% and an Activity (PC-9 [2]) of 22.97%. For the same molecule, the Activity (PC-9 [3]) was 20.29%, the Activity (NCI-H157 [4]) was 47.83% and the Activity (NCI-H157 [5]) was 36.68%. The Activity (NCI-H157 [6]) was 15.21%, the Activity (PC-9 [7]) was 5.7% and the Activity (PC-9 [8]) was 32.1%. The Activity (NCI-H157 [9]) was 6.1%, the Activity (NCI-H157 [10]) was 18.15% and the IC50 (NCI-H157 [11]) was 2.9 µM. It also gave an IC50 (A549 [12]) of 3.3 µM, an IC50 (NCI-H1703) of 3.6 µM and an IC50 (NCI-H1299) of 2.7 µM. For the same molecule, the IC50 (NCI-H460) was 2.3 µM, the IC50 (PC-9 [13]) was 2.1 µM and the IC50 (U-87 MG) was 10.4 µM. The IC50 (U-251) was 4.5 µM, the viability at 5 µM (PC-9 [14]) was 38.1% and the Activity (PC-9 [15]) was 23.4%. The viability at 5 µM (NCI-H157 [16]) was 70.7%, the Activity (NCI-H157 [17]) was 4.9% and the Activity (PC-9 [18]) was “Active”. The Activity (PC-9 [19]) was “Active”, the Activity (PC-9 [20]) was “Active” and the Activity (NCI-H157 [21]) was “Active”. The Activity (NCI-H157 [22]) was “Active”, the Activity (NCI-H157 [23]) was “Active” and the inhibition (PC-9 [24]) was “Active”. For the same molecule, the inhibition (PC-9 [25]) was “Active”, the inhibition (NCI-H157 [26]) was “Active” and the inhibition (NCI-H157 [27]) was “Active”. The inhibition (PC-9 [28]) was “Active”, the inhibition (PC-9 [29]) was “Active” and the inhibition (NCI-H157 [30]) was “Active”. For the same molecule, the inhibition (NCI-H157 [31]) was “Active”, the viability at 50 µM (A549 [32]) was < 50% and the viability at 50 µM (NCI-H157 [33]) was < 50%.
